Results on two compounds are retold here after patent publication US20200330447A1, “CANCER TREATMENT VIA REPOSITIONED TRICYCLIC ANTI-DEPRESSANT-LIKE DRUGS AS ANTI-CANCER AGENTS AND NEW COMBINATIONS OF SUCH DRUGS” (Board of Supervisors of Louisiana State University and …, priority 2015, published 2020).

SMILES strings stand for the structures.

Holding throughout (format): cell-based
The subject of assay [1] is A172 glioblastoma cells. Put plainly: Acidic media pH induced lysosome distribution, LAMP-1 IF imaging. To be noted: for acidic media induced trafficking of lysosomes to the cell periphery: 5 or 10 μM overnight, then low pHe media with drug 2 h; for lysosomal outward movement, early time: 5 or 10 μM, 2 h then low pHe media with drugs 2 h (4 hours); for inward movement of lysosomes, single drug: one micromolar alone. The protocol:
A172 glioblastoma cells were treated overnight with 5 or 10 μM deptropine or pizotifen or with the deptropine or pizotifen in combination at 5 μM concentration. The next day, media was change to low pHe media containing deptropine or pizotifen and the cells were incubated for an additional 2 h. EIPA is a known inhibitor of lysosomal outward movement and represents the positive control. At the end of the incubation time, cells were fixed and stained for LAMP-1, filamentous actin and nuclei. Representative merged IF images depicting the effect of pHe 7.4, pHe 6.4, DMSO or deptropine and pizotifen on the distribution of lysosomes in A172 glioblastoma cells. On color versions of the Figure, red puncta are lysosomes, blue is nuclei and green is actin. As could be seen, lysosomes appear more peripherally distributed in A172 glioma cells than in cells treated with concentrations of 5 to 10 micromolar deptropine or pizotifen.
Cells were treated as described above with FIG. 2 but included a concentration of 0.1 micromolar and 1 micromolar deptropine and pizotifen.
Turning to FIG. 7, an additional aspect of this technology is how quickly deptropine and pizotifen act to move lysosomes towards the nucleus. […] A172 glioblastoma cells were treated with the 5 or 10 μM deptropine or pizofifen for 2 h and then with low pHe media containing the drugs for an additional 2 hours. At the end of incubation time, cells were fixed and stained for LAMP-1, filamentous actin, and nuclei. Representative merged IF images depicting the effect of DMSO, 5 and 10 μM deptropine or pizotifen upon 4 hours on the distribution of lysosomes, colored red in color images, in A172 glioblastoma cells. Also shown in color images are actin, colored green, and nuclei, colored blue.

Assay [2] concerns A172 glioblastoma cells. The assay can be described thus: Growth factor (HGF, EGF) induced trafficking of lysosomes to cell periphery. To be noted: 10 μM overnight, HGF (33 ng/ml) or EGF (100 ng/ml). On the procedure: In this embodiment deptropine and pizotifen also block lysosome peripheral movement in glioma cells treated with the growth factors HGF and EGF. Both of these growth factors interact with their receptors, c-Met and EGFR, respectively to induce glioma invasion. In this example, A172 glioblastoma cells were treated overnight with 10 μM deptropine or pizotifen in the presence or absence of HGF (33 ng/ml) or EGF (100 ng/ml). At the end of the incubation time, cells were fixed and stained for LAMP-1, filamentous actin, and nuclei. Representative merged IF images depicting the effect of DMSO, 10 μM deptropine or pizotifen and/or HGF, EGF on the distribution of lysosomes (red in color images) in A172 glioblastoma cells. Also shown here are actin (green in color images) and nuclei (blue in color images).

In assay [3] the test system is A172 glioblastoma cells. The assay can be described thus: Wound motility (migration) assay, Incucyte. As to conditions: for motility: 5 or 10 μM, 8 h prior to wounding; for motility (percent migration), single drug: either drug alone at 10 μM. The protocol: (§1) An important aspect of this technology is the showing that deptropine and pizotifen block tumor invasion using 3D assays. […] For this experiment A172 glioblastoma cells were treated with 5 or 10 μM deptropine or pizotifen or drug mix at 5 μM concentration for 8 h prior to the wounding and the addition of matrigel. Upon wounding, cells were allowed to migrate or invade through matrigel in the presence of DMSO, 5 or 10 μM deptropine or pizotifen or the drug mix at 5 μM concentration. EIPA, a known inhibitor of lysosomal outward movement, is the positive control. Motility and invasion were calculated by Incucyte platform that acquires real time images of invasion and motility and calculate the relative wound density percentage at different time points. Percent migration (FIG. 6A) or invasion (FIG. 6B) through matrigel in A172 glioblastoma cells in the presence of DMSO, 5 or 10 μM deptropine or pizotifen or the drug mix at 5 μM concentration. Error bars represent s.e.m. of 5 separate experiments. # statistical significance, p<0.001, versus both 1% FBS and DMSO; *, p<0.01 versus both 1% FBS and DMSO

Assay [4] deals with A172 glioblastoma cells. Put plainly: Wound invasion through matrigel, Incucyte. As to conditions: for invasion: 5 or 10 μM, 8 h prior to wounding and addition of matrigel. The protocol: as §1
The next assay concerns A172 cells. The assay can be described thus: Invasive structures in 3D culture.
Another assay concerns Erk signaling pathway. Put plainly: Lysosome inward movement in the presence of the MAPK inhibitor U0126, and Erk western blot. As to conditions: A172 cells, results not shown. The protocol: Turning to FIG. 8, deptropine and pizotifen are shown to act through the Erk signaling pathway. In this experiment, A172 cells were treated with deptropine and pizotifen at 5 μM concentrations for 4 hours in the presence of the MAPK inhibitor U0126. I.F. microscopy was then performed. This helped allow the determination of the mechanism of action of deptropine and pizotifen.
(A western blot detects proteins with antibodies after separation by electrophoresis.)

In a further assay the test system is mTOR signaling pathway. The assay can be described thus: Western blot of phosphorylated S6K (mTOR signaling). As to conditions: A172 cells, 4 hours. On the procedure: Deptropine and pizotifen were added to A172 cells for 4 hours and western blot analysis was performed to measure levels of phosphorylated S6K, indicative of active mTOR signaling.
For the next assay, the system named is LC3-II. The assay can be described thus: Autophagy: LC3-I/LC3-II western blot and GFP-LC3II microscopy. As to conditions: A172 cells, overnight; for levels of LC3-II, western blot: deptropine 5 or 10 micromolar, pizotifen 5 micromolar; for association of GFP-LC3-II with puncta representing autophagosomes: microscopy. On the procedure: A further embodiment of this technology is the use of deptropine and pizotifen to induce autophagy. A172 cells were treated with EIPA (1), Serum (2), Serum Free (3), DMSO (4, solvent control), rapamycin 0.5 micromolar (5), one micromolar (6), deptropine at 5 micromolar (7), 10 micromolar (8) or pizotifen at 5 micromolar (9) overnight and GFP-LC3II was visualized by microscopy or western blot analysis was performed to detect LC3-I and LC3-II forms.

Take `CN1[C@@H]2CC[C@H]1C[C@@H](OC1c3ccccc3CCc3ccccc31)C2` [deptropine, 3a-[(10, 11-dihydro-5H-dibenzo[a,d]cyclohepten-5-yl)oxy]1aH,5aH-tropane]: in the assay on A172 glioblastoma cells [1], the “acidic media induced trafficking of lysosomes to the cell periphery” value was “blocks acidic media induced trafficking of lysosomes to the cell periphery”; the “lysosomal outward movement, early time” value is listed as “prevent lysosomal outward movement”; the “inward movement of lysosomes, single drug” value was “only a marginal effect”. In addition, the “trafficking of lysosomes to cell periphery induced by growth factors” value in the assay on A172 glioblastoma cells [2] is “block trafficking of lysosomes to cell periphery”. Moreover, in the assay with A172 glioblastoma cells [3], the motility entry is recorded as “decrease” and the “motility (percent migration), single drug” value is listed as “reduces motility but to a level that is determined to be significant”. Moreover, the invasion result in the assay with A172 glioblastoma cells [4] was “decrease”. Further, the “number of invasive structures formed in 3D culture” value in the assay on A172 cells is “effectively reduce the number of invasive structures”. Also, the “Erk signaling pathway, western blot” value in the assay on Erk signaling pathway is recorded as “activate the Erk signaling pathway”. Moreover, in the assay on mTOR signaling pathway, the “phosphorylation of S6K” value is “eliminates the phosphorylation of S6K”. Moreover, in the assay on LC3-II, the “levels of LC3-II, western blot” value is listed as “increases the levels of the proteins LC3-II” and the “association of GFP-LC3-II with puncta representing autophagosomes” value is recorded as “increase the association GFP-LC3-II with puncta”.
As for `CN1CCC(=C2c3ccccc3CCc3sccc32)CC1` [pizotifen, 4-(1-methyl-4-piperidylidine)-9,10-dihydro-4H-benzo-[4,5]cyclohepta[1,2]-thiophene], in the assay on A172 glioblastoma cells [1], the “acidic media induced trafficking of lysosomes to the cell periphery” value is recorded as “blocks acidic media induced trafficking of lysosomes to the cell periphery”; the “lysosomal outward movement, early time” value is reported as “prevent lysosomal outward movement”; the “inward movement of lysosomes, single drug” value is on record as “only a marginal effect”. Further, in the assay with A172 glioblastoma cells [2], the “trafficking of lysosomes to cell periphery induced by growth factors” value is “block trafficking of lysosomes to cell periphery”. In addition, in the assay with A172 glioblastoma cells [3], the motility entry is “decrease” and the “motility (percent migration), single drug” value is reported as “reduces motility but to a level that is determined to be significant”. Moreover, the “invasion through matrigel (percent invasion)” value in the assay on A172 glioblastoma cells [4] (10 μM) is “significantly reduces invasion”. Moreover, the invasion result in the assay on A172 glioblastoma cells [4] is given as “decrease”. In the assay on A172 cells, the “number of invasive structures formed in 3D culture” value is recorded as “effectively reduce the number of invasive structures”. The “Erk signaling pathway, western blot” value in the assay with Erk signaling pathway was “activate the Erk signaling pathway”. The “phosphorylation of S6K” value with mTOR signaling pathway was “eliminates the phosphorylation of S6K”. In addition, in the assay on LC3-II, the “levels of LC3-II, western blot” value is recorded as “increases the levels of the proteins LC3-II” and the “association of GFP-LC3-II with puncta representing autophagosomes” value is given as “increase the association GFP-LC3-II with puncta”.
